Laboratory results from patent publication US6369066B1, “Substituted 1,3-oxathiolanes with antiviral properties” (BioChem Pharma, Inc., priority 1990, dated 2002).
≈ marks a conversion by molar mass, not a printed value. Read-outs that look alike come from different tables or passages of the source.

What was measured:
Format in all cases: cell-based
[1] = system: HIV-1 HXB2D-184 M→V (3TC™ and FTC resistance mutation); test: IC50 in CBMCs with constructed mutated virus HXB2D-184; conditions: Human immunodeficiency virus 1, read-out: IC50 HXB2D-184 M→V
Method: (§1) In short, viruses (HTLV-IIIB) that had initially been grown on MT-4 cells were passaged onto phytohemaglutinin-prestimulated cord blood mononuclear cells (CBM). For subsequent analysis, samples of CBM (5×10^5 cells per mL) were pretreated with various concentrations of the different compounds for 4 h and were then inoculated with CBL-grown HIV-1 at a multiplicity of infection of 1.0 in the concentration of the compound used for the pretreatment. Fresh medium, including the appropriate concentration of the compound was added three times weekly, and fresh phytohemaglutinin-prestimulated CBM (5×10^5 cells per mL) were added at 2-day intervals. The calculation of IC50 was determined on the basis of RT levels in culture fluids as described in Gao et al., (1992), J. Virol. 66: 12-19.
(§2) Determination of IC50 (μM) in Different Mutated Isolates of HIV-1 in the Presence of Different Antiviral Compounds
(§3) The procedure is similar to the procedure used in the CBM assay, with the exception that constructed virus and construted mutated virus were used.
(§4) The constructed virus HXB2D-65 correspond to the ddC resistance mutation and the constructed virus HXB2D-184 correspond to the 3TC™ and FTC resistance mutation.

HIV-1 IIIB = test: IC50 in CBMCs with HIV-1 isolate IIIB; conditions: Human immunodeficiency virus 1
Method: as §1, §2, §3

U937 = test: Cell culture inhibitory dose (CCID50) in U937; conditions: cell counting, trypan blue exclusion, 7 days post drug treatment
Method: (§5) Evaluation of Cell Culture Inhibitory Dose (CCID50)
(§6) Cell growth was determined by cell counting and viability by trypan blue exclusion 7 days post drug treatment. CCID50 is expressed as the drug concentration which inhibits 50% of cell growth.

Jurkat = test: Cell culture inhibitory dose (CCID50) in Jurkat; conditions: cell counting, trypan blue exclusion, 7 days post drug treatment
Method: as §5, §6

HIV-1 HXB2D = test: IC50 in CBMCs with constructed virus HXB2D; conditions: Human immunodeficiency virus 1, read-out: IC50 HXB2D
Method: as §1, §2, §3, §4

HIV-1 (strain RF) = test: Inhibition of syncytium formation in C8166 cells
Method: Inhibition of Syncytium Formation
C8166 cells were infected with HIV-1 (strain RF) at a moil of 1×10^−3 infectious units/cell and adsorbed at room temperature for 60 minutes. After adsorption, the cells were washed three times in growth medium. Aliquots of 10^5 cells were added to each well of 24-well plates containing serial dilution of test compounds at final concentrations of 50 μg/ml to 0.05 μg/ml in RPMI® 1640 growth medium. Untreated infected cells and untreated uninfected cells were also included as controls. The plates were incubated at 37° C./5% CO2 for 3-4 days in humidified containers. The cells were examined daily for evidence of HIV-1 induced syncytium formation. The syncytia were quantified by reference to the untreated infected controls, and the dose of compound required to reduce the cytopathic effect by 50% (ID50) was calculated.

[2] = system: 2.2.15 cells (Hep G2 cells transfected with human hepatitis B virus genomic DNA); test: Cytotoxicity (CD50) reported with HBV assay; conditions: HBV table
Method: (§7) The method used for this test is described in detail in Korba et al., Antiviral research 15, 217-228 (1992) which is shortly described as follows: Hep G2 cells transfected with human hepatitis B virus genomic DNA (2.2.15 cells) were grown and maintained in RPMI-1640 culture medium containing %5 foetal bovine serum, 2 mM glutamine and 50 μg/ml gentamicin sulphate, and checked routinely for G418 resistance. Cultures of 2.2.15 cells were grown to confluence in 24 well tissue culture plates and maintained for 2 to 3 days in that condition prior to drug treatment.

human hepatitis B virus = test: Inhibition of human hepatitis B virus in 2.2.15 cells, extracellular HBV DNA; conditions: 10 day treatment
Method: Inhibition of Human Hepatitis B Virus.
as §7
Drugs were dissolved in sterile water or sterile 50% DMSO in water at concentrations 100-fold higher than the higher test concentration. These solutions were diluted as needed in culture medium.
The culture medium on the confluent cells was changed 24 hours prior to exposure to test compounds. During the 10 day treatment, the culture medium was changed daily. After 10 days of the treatment, the culture medium was collected and frozen at −70° C. for HBV DNA analysis. […]
A purified 3.2 kb EcoR1 HBV DNA fragment was labeled with [^32p]dCTP by nick translation and used as a probe to detect HBV DNA on the dot-blot by DNA hybridization. After washing, the hybridized blot was dried and ^32p was quantified using an Ambis beta scanner.

[3] = Human immunodeficiency virus 1, C8166 cells, HIV-1 strain RF, syncytium formation, 3-4 days, read-out: IC50 (dose reducing the cytopathic effect by 50%, ID50)

With `Nc1nc(=O)n([C@@H]2CO[C@H](CO)S2)cc1F` [compound 4, 2S-hydroxymethyl-4S-(5′-fluorocytosin-1′-yl)-1,3-oxathiolane] the IC50 [1] was 2 µM, the IC50 (HIV-1 IIIB) was 0.34 µM and the “CCID50 U937” value (U937) was greater than 500 µM. For the same molecule, the “CCID50 Jurkat” value (Jurkat) was greater than 500 µM, the IC50 (HIV-1 HXB2D) was 3 µM and the IC50 (HIV-1 (strain RF); [3]) was 0.03 mg/L (≈ 0.121 µM).

`Nc1ccn([C@@H]2CO[C@H](CO)S2)c(=O)n1` [Compound #2, 2S-hydroxymethyl-4S-(cytosin-1′-yl)-1,3-oxathiolane] was tested, and the IC50 [1] was 3 µM, the IC50 (HIV-1 IIIB) was 0.28 µM and the “CD50 (HBV)” value [2] was greater than 10 µg/mL. The “CCID50 U937” value (U937) was 22 µM, the “CCID50 Jurkat” value (Jurkat) was 11 µM and the IC50 (HIV-1 HXB2D) was 0.1 µM. For the same molecule, the IC50 (HIV-1 (strain RF); Human immunodeficiency virus 1, C8166, read-out: IC50 (dose reducing the cytopathic effect by 50%, ID50)) was 0.08 mg/L (≈ 0.349 µM) and the “ID50 (HBV)” value (human hepatitis B virus) was 4 mg/L (≈ 17.4 µM).

`Nc1nc(=O)n([C@H]2CO[C@@H](CO)S2)cc1F` [compound 3, 2R-hydroxymethyl-4R-(5′-fluorocytosin-1′-yl)-1,3-oxathiolane] was tested, and the IC50 [1] was 9 µM, the IC50 (HIV-1 IIIB) was 0.83 µM and the “CCID50 U937” value (U937) was greater than 500 µM. For the same molecule, the “CCID50 Jurkat” value (Jurkat) was greater than 500 µM, the IC50 (HIV-1 HXB2D) was 3 µM and the IC50 (HIV-1 (strain RF); [3]) was 0.17 mg/L (≈ 0.688 µM).
